Data on four compounds can be found in patent US9997714B2, “Hole transport material” (MERCK PATENT GMBH, priority 2013, dated 2018).

Read-outs that look alike come from different tables or passages of the source. A value given as a limit tells only on which side of the number the result lay.

Series [1] in a line: Qualitative solubility of the HTM in chlorobenzene (spin-coat solution). In kind it is physicochemical. The following applies: for solubility compared with reference materials: in words; for solubility: organic solvent or mixture. On the procedure: A solution for a spin-coat is prepared in a N2 glove box as follows: at first, 20 mg of a hole transport material is dissolved in 95 μL of chlorobenzene. The hole transport material needs to be dissolved completely. A mother solution of lithium bis(trifluorosulfonyl)imide (LiTFSI) and tert-butylpyridine (TBP) is prepared separately at room temperature and is added to the hole transporter solution to set the molar ratio to [hole transporter]:[LiTFSI]:[TBP]=10:1:10 at room temperature. Thus the final volume of the solution is 100 μL.
The solubility of the HTMs according to examples 1, 2 and 3 are evaluated qualitatively:
1 means: 20 mg of HTM is completely dissolved without heating
2 means: HTM is dissolved after heating to 80° C.
3 means: HTM is dissolved after adding salt and base solution and heating to 80° C.
4 means: HTM is dissolved after adding another 50 μL of chlorobenzene and heat to 80° C. (final folume 150 μl).

The nature of series [2]: Hole mobility by impedance spectroscopy. In kind it is physicochemical. The conditions noted are these: for Hole mobility: ITO/PEDOT-PSS/HTM(400 nm)/Au cell, dc field intensity 10^5V/cm, four cells. On the procedure:
The hole mobility of the inventive compound 2,2′,7,7′-tetrakis-(N,N′-di-4-methoxy-3-methylphenylamine)-9,9′-spirobifluorene is measured and the value is compared with those of the reference materials according to example 2 and example 3.
The structure of the measurement cell is ITO(200 nm)/PEDOT-PSS(150 nm)/HTM(400 nm)/Au(60 nm).
The measurement is carried out using four cells for each HTM by means of impedance spectroscopy. (Ref. 1. H. Martens et al., Phys. Rev. B, 60, R8489 (1999), Ref. 2. S. Ishihara, et al., Proc. of IDW'09, p 1085 (2009)). In the impedance measurement, a direct current (dc) voltage is applied to the test cell in order to inject holes from an anode. The hole mobility is determined under the dc field intensity of 10^5V/cm.

The conditions of series [3]: order of magnitude, background; cited from earlier work.
[4] abbreviates: 20 mg of HTM in 95 μL chlorobenzene completely dissolved without heating, read-out: solubility grade 1.

With `COc1ccc(N(c2ccc(OC)c(C)c2)c2ccc3c(c2)C2(c4cc(N(c5ccc(OC)c(C)c5)c5ccc(OC)c(C)c5)ccc4-3)c3cc(N(c4ccc(OC)c(C)c4)c4ccc(OC)c(C)c4)ccc3-c3ccc(N(c4ccc(OC)c(C)c4)c4ccc(OC)c(C)c4)cc32)cc1C` [Example 1, 2,2′,7,7′-tetrakis-(N,N′-di-4-methoxy-3-methylphenylamine)-9,9′-spirobifluorene], the “solubility grade 1” value in series [1] (20 mg of HTM in 95 μL chlorobenzene completely dissolved without heating) is “✓”. In addition, the figures for the “solubility compared with reference materials” value in series [1] (listed as compound of formula (I)) and in series [1] (listed as hole transport material according to the invention) were “better solubility than spiro-OMeTAD” and “better solubility than the reference materials”, respectively. The same compound gave a Hole mobility in series [2] of 1.29E−04 cm^2/Vs.

As a reminder, the solubility is the concentration that dissolves in the medium under given conditions. As to `COc1c(C)cc(N(c2cc(C)c(OC)c(C)c2)c2ccc3c(c2)C2(c4cc(N(c5cc(C)c(OC)c(C)c5)c5cc(C)c(OC)c(C)c5)ccc4-3)c3cc(N(c4cc(C)c(OC)c(C)c4)c4cc(C)c(OC)c(C)c4)ccc3-c3ccc(N(c4cc(C)c(OC)c(C)c4)c4cc(C)c(OC)c(C)c4)cc32)cc1C` [Example 3], the “solubility grade 4” value in series [1] (HTM dissolved after adding another 50 μL of chlorobenzene and heat to 80° C., final volume 150 μl) was “✓”. The solubility is < 210 mg/mL in series [1] (chlorobenzene with LiTFSI and tert-butylpyridine solution, HTM dissolved after adding salt and base solution and heating to 80° C., read-out: solubility grade 3); < 210 mg/mL in series [1] (chlorobenzene, HTM dissolved after heating to 80° C., read-out: solubility grade 2); < 210 mg/mL in series [1] (setting [4]). The compound also came in with a Hole mobility in series [2] of 9.34E−06 cm^2/Vs.

For the compound `COc1ccc(N(c2ccc(OC)c(C)c2)c2ccc3c(c2)C2(c4cc(N(c5ccc(OC)c(C)c5)c5ccc(OC)c(C)c5)ccc4-3)c3cc(N(c4ccc(OC)c(C)c4)c4ccc(OC)c(C)c4)ccc3-c3ccc(N(c4ccc(OC)c(C)c4)c4ccc(OC)c(C)c4)cc32)cc1C`, in series [2] (in words), the “hole mobility compared with reference example 3” value is on record as “more than one order of magnitude larger” and the “hole mobility compared with spiro-OMeTAD” value was “larger than the hole mobility of spiro-OMeTAD”.

In the case of `COc1ccc(N(c2ccc(OC)cc2)c2ccc3c(c2)C2(c4cc(N(c5ccc(OC)cc5)c5ccc(OC)cc5)ccc4-3)c3cc(N(c4ccc(OC)cc4)c4ccc(OC)cc4)ccc3-c3ccc(N(c4ccc(OC)cc4)c4ccc(OC)cc4)cc32)cc1` [Example 2, 2,2′,7,7′-tetrakis-(N,N′-di-4-methoxyphenylamine)-9,9′-spirobifluorene], the “solubility grade 2” value in series [1] (HTM dissolved after heating to 80° C.) was “✓”. The solubility in series [1] (setting [4]) was < 210 mg/mL. In series [2], this compound gave a Hole mobility of 1.08E−04 cm^2/Vs. In addition, the charge carrier mobility in series [3] is ~10^−4 cm^2/Vs.
